Test [1] has as its system cellulase. The test is described as follows: Cellulase activity of RCF pulp samples, Enzchek Cellulase substrate. The format is biochemical. On the procedure: Cellulase activity expressed here as “mU/ml” may be obtained using Enzchek Cellulase substrate (Life Technologies, part of Thermo Fisher Scientific), using the manufacturer's instructions and measurement protocol where sodium acetate buffer is adjusted to pH 6.0 and the samples are diluted 1/10 to minimize inhibition and quenching by fibers.
For example, in soil research microbial cellulolytic potential can be tested with agar plate cultivation, but there are also commercially available substrates for measurement of cellulase activity directly from aqueous samples (cellulase production organism cultivation broths/extracts).
According to the supplier, the assay limit of detection is ~110% of the signal for blank (buffer instead of sample). In addition, standard curve was measured as recommended with Trichoderma mold cellulase (at recommended pH 5.0), but in addition also with Bacillus amyloliquefaciens cellulase (Megazyme; at recommended pH 6.0). Both gave near-linear standard curve with good sensitivity.
(§1) Short-term and long-term effect of biocides on cellulase activity of process samples was tested with laboratory incubations of recycled fiber (RCF) pulp samples at 40° C.

Test [2] relates to ATP. The test is described as follows: ATP measured from pulp bottles. It is filed as cell-based. To be noted: after 2 d. The procedure:
(§2) 50 g liner board (from two different mills: 50% from a mill using ~50% unbleached kraft pulp and ~50% recycled fiber and 50% from a mill using 100% recycled fiber) was re-pulped with process water from a third mill using recycled fiber. The final consistency of the pulp was 1.0%. The pulp suspension was divided into 12 bottles and starch suspension (native potato starch) was added into each bottle, so that the concentration of added starch was 1.5 g/l. Six of the bottles (numbers 1-6) were put into an incubator with no other treatment. The other 6 bottles (numbers 7-12) were first pasteurized (1 h, +80° C.) in order to inactivate any enzymes present. After that, the bottles were treated with a biocide (50 mg/l monochloramine, as active chlorine). After this, all 12 bottles were kept at +40° C. with shaking for 4 days. During the incubation, 10 mg/l monochloramine was added daily into the bottles 7-12). At the beginning of the incubation, the pH of the pulp was 6.0, redox −46 mV and conductivity 4.8 mS/cm.
After 2 d, ATP was measured from each bottle and was 1000-fold higher in non-treated than treated bottles (average 71 000 pg/ml, st.dev. 3800, vs. average 70, st.dev. 7 pg/ml, respectively).

Test [3] has as its system Anaerobic bacteria. The test is described as follows: Anaerobic bacterial count in pulp. It is filed as cell-based. To be noted: pasteurized 1 h +80° C., 50 mg/l monochloramine then 10 mg/l daily, 4 d at +40° C., n = 6. On the procedure:
(§3) 50 g liner board was re-pulped with process water from a mill using recycled fiber. The final consistency of the pulp was 1.0% and the liner was from a mill using ~50% unbleached kraft pulp and ~50% recycled fiber. This mill uses about 6 kg/ton wet-end starch in the production of the liner. The pulp suspension was divided into 12 bottles. Six of the bottles were put into an incubator with no other treatment. The other 6 bottles were first pasteurized (1 h, +80° C.) in order to inactivate any enzymes present. After that, the bottles were treated with a combination of a biocide (Mixture of DBNPA, bronopol and CMIT/MIT, 100 mg/l as active substance) and either zinc or zinc comprising compound (25 mg/l as Zn^2+). After this, all 12 bottles were kept at +40° C. with shaking for 3 days. At the beginning of the incubation, the pH of the pulp was 6.64, redox+160 mV and conductivity 5.46 mS/cm.
After 3 d pH, ORP, and total and cellulolytic bacterial amounts were measured from each bottle.
50 g liner board (from two different mills: 50% from a mill using ~50% unbleached kraft pulp and ~50% recycled fiber and 50% from a mill using 100% recycled fiber) was re-pulped with process water from a third mill using recycled fiber. The final consistency of the pulp was 1.0%. […]
After 4 d pH, ORP, bacterial amounts and cellulase activity were measured from each bottle.

The test system of test [4] is Aerobic bacteria. The test is described as follows: Culturable aerobic bacterial count in pulp. The format is cell-based. On the procedure:
as §1, §3
as §2, with “After this, all 12 bottles were kept at +40° C. with shaking for 4 days. During the incubation, 10 mg/l monochloramine was added daily into the bottles 7-12).” left out

The mark [5] stands for this setting: RCF pulp, MCA Day 1 50 mg/l, Day 2 and 3 10 mg/l, Days 4-8 no addition.
Where [6] appears, read: pasteurized 1 h +80° C., 50 mg/l monochloramine then 10 mg/l daily, 4 d at +40° C., n = 6.

Structures are written as SMILES.

For the molecule `NCl` [MCA, monochloramine], in test [1] (5 d after the last biocide dosage, corresponding to 134% of the blank), the “cellulase activity in process sample” value is listed as ~ 0.2 mU/ml. The “Cellulase activity at 7 d, % compared to blank” value in test [1] (setting [5]) was found to be 134%. The “Cellulase activity, Average” value in test [1] (setting [6]) is given as 0.44 mU/ml. In test [2], the “ATP higher in non-treated than treated bottles” value came out at 1000 fold. Further, the “ATP, average” value in test [2] (treated bottles, 50 mg/l monochloramine then 10 mg/l daily, +40° C.) is 70 pg/mL. Moreover, the “Anaerobic bacteria, Average” value in test [3] is given as 970 cfu/ml. For the same molecule, the “reduction of total CFUs” value in test [4] (3-day experiment, daily dosages of MCA) is recorded as 5 orders of magnitude. In test [4] (RCF pulp, MCA Day 1 50 mg/l, Day 2 and 3 10 mg/l), the “Aerobic bacteria, 3 d, cfu/ml” value is reported as 6000 cfu/ml. Also, the “Aerobic bacteria, 6 d, cfu/ml” value in test [4] (setting [5]) is given as 30 000 000 cfu/ml. The “Aerobic bacteria, Average” value in test [4] (setting [6]) is 8 700 cfu, ml.

Source of the values: patent US12686971B2, “Method of controlling enzymatic activities and tools related thereto” (KEMIRA OYJ, priority 2020, dated 2026).
